How the values were obtained:
[1] = tested on: A549 cells; assay: Cancer cell toxicity of CBD, WST-8 cell survival; format: cell-based; settings: Homo sapiens, A549, 48 h
Protocol: Specifically, A549 cells, a lung cancer cell line, were seeded in 96-well plates at a concentration of 1×10^4 cells/well, cultured in a 37° C., 10% CO2 incubator for 24 hours, then treated with CBD in a concentration-dependent manner and cultured under the same conditions for 48 hours. After completion of culture, 1/10 of WST-8 solution (Quanti-Max™, BIOMAX, Korea) was added to the medium, and after additional culture at 37° C. for 1 hour, the cell survival rate was determined by measuring absorbance at 450 nm, and expressed as a percentage of the control without any treatment. The experiment was conducted independently and repeated three times.

[2] = tested on: A549 cells; assay: Anti-cancer agents with or without CBD, WST-8 cell survival; format: cell-based; settings: A549, 48 h
Protocol: After completion of culture, 1/10 of WST-8 solution (Quanti-Max™, BIOMAX, Korea) was added to the medium, and after additional culture at 37° C. for 1 hour, the cell survival rate was determined by measuring absorbance at 450 nm, and expressed as a percentage of the control without any treatment. The experiment was conducted independently and repeated three times.

[3] = tested on: A549 cells; assay: cells; settings: Homo sapiens, A549, 48 h
[4] = tested on: A549 cells; assay: Apoptosis by Fluorescence Activated Cell Sorting (FACS); format: cell-based; settings: A549, combined treatment of etoposide and CBD compared to individual treatment
From the text: In addition, the apoptosis results of the combination treatment were re-validated using a Fluorescence Activated Cell Sorting (FACS) system.

[5] = tested on: A549 cells; assay: Western blotting of apoptosis- and autophagy-related proteins after combined treatment; format: cell-based; settings: A549, 24 h, etoposide combined with CBD (15 μM)
Protocol: After completion of culture, the cells were harvested and the proteins were quantified using the bradford assay (Bio-Rad, japan), and the proteins (30 ug/well) were separated by electrophoresis on NuPAGE 4-12% Bis-Tris gels (Invitrogen) and transferred to polyvinylidene difluoride (PVDF). Next, the PVDF membrane was reacted with a primary antibody (Monoclonal antibody, Cell signaling technology, USA) specific for PARP[Poly (ADP-ribose) polymerase], cleaved caspase9, cleaved caspase8, LC3B or GAPDH for 1 hour at room temperature, followed by reacting with an anti-rabbit secondary antibody (Cell signaling technology) for 1 hour. The antibodies bound to PVDF were visualized using ECL Advance Western Blotting Detection Reagents (GE Healthcare, UK) and LAS 4000 imaging system (Fujifilm, Japan).

[6] = Homo sapiens, read-out: IC50 (μM), with CBD (15 μM)
[7] = Homo sapiens, read-out: IC50 (μM), without CBD
[8] = etoposide concentration-dependent

Work on `C=C(C)[C@@H]1CCC(C)=C[C@H]1c1c(O)cc(CCCCC)cc1O` [CBD, 2-[(1R,6R)-3-methyl-6-prop-1-en-2-ylcyclohex-2-en-1-yl]-5-pentylbenzene-1,3-diol] yielded an IC50 [1] of 18.6 µM.
Work on `COc1cc2nccc(Oc3ccc(NC(=O)C4(C(=O)Nc5ccc(F)cc5)CC4)cc3)c2cc1OC` [Cabozantinib (XL184), Cabozantinib] yielded an IC50 [2, 6] of 4.14 µM and an IC50 [2, 7] of 8.29 µM.
`N.N.O=C([O-])C1(C(=O)[O-])CCC1.[Pt+2]` [Carboplatin] gave an IC50 ([2]; read-out: IC50 (μM), 48 h, with CBD, with CBD (15 μM)) of over 100 µM.
`COc1cc([C@@H]2c3cc4c(cc3[C@@H](O[C@@H]3O[C@@H]5CO[C@@H](C)O[C@H]5[C@H](O)[C@H]3O)[C@H]3COC(=O)[C@H]23)OCO4)cc(OC)c1O` [Etoposide (VP-16), etoposide] was tested, and the IC50 ([3]; read-out: cytotoxicity (IC50) of etoposide alone) was 106 µM, the IC50 ([3]; read-out: cytotoxicity (IC50) of etoposide upon combined treatment with CBD) was 51.4 µM and the “number of early apoptotic cells” value [4] was “significantly increased”. For the same compound, the “expression of Bcl-2 protein” value [5] was “decreased”, the “expression of autophagy-related protein LC3-II” value [5] was “increased” and the “expression of Bax protein” value [5, 8] was “increased”. The “expression of cleaved PARP protein” value [5, 8] was “increased”, the “expression of cleaved caspase8 protein” value [5, 8] was “increased” and the “expression of cleaved caspase9 protein” value [5, 8] was “increased”. For the same compound, the IC50 [2, 6] was 51.4 µM.
`COc1cc2nccc(Oc3ccc(NC(=O)NC4CC4)c(Cl)c3)c2cc1C(N)=O` [Lenvatinib] gave an IC50 [2, 6] of 16.9 µM and an IC50 [2, 7] of 19.9 µM.
`CNC(=O)c1cc(Oc2ccc(NC(=O)Nc3ccc(Cl)c(C(F)(F)F)c3)c(F)c2)ccn1` [Regorafenib] showed an IC50 [2, 6] of 4.11 µM and an IC50 [2, 7] of 5.27 µM.
`CNC(=O)c1cc(Oc2ccc(NC(=O)Nc3ccc(Cl)c(C(F)(F)F)c3)cc2)ccn1` [Sorafenib] was tested, and the IC50 [2, 6] was 4.26 µM and the IC50 [2, 7] was 8.97 µM.
Work on `CCC1=C[C@@H]2CN(C1)Cc1c([nH]c3ccccc13)[C@@](C(=O)OC)(c1cc3c(cc1OC)N(C)[C@H]1[C@@](O)(C(=O)OC)[C@H](OC(C)=O)[C@]4(CC)C=CCN5CC[C@]31[C@@H]54)C2` [Vinorelbine] yielded an IC50 [2, 6] of 6.38 µM and an IC50 [2, 7] of 12.4 µM.
